According to patent US20220296623A1, “REDUCED NICOTINAMIDERIBOSIDES FOR TREATING OR PREVENTING KIDNEY DISEASE” (SOCIETE DES PRODUITS NESTLE S.A., priority 2019, published 2022):
Entries after “also recorded” stand apart in the source; their conditions may differ.

Assays:
[1] = tested on: NRH-induced NAD+ Synthesis; experiment: Intracellular NAD-related metabolites after NRH or NR treatment; format: cell-based
Source text: Levels of NRH and other NAD-related metabolites in biological samples were obtained by using a cold liquid-liquid extraction using a mixture of methanol:water:chloroform in 5:3:5 (v/v), from which the polar phase was recovered for hydrophilic interaction ultra-high performance liquid chromatography mass spectrometry (UHPLC-MS) analysis. The UHPLC consisted of a binary pump, a cooled autosampler, and a column oven (DIONEX Ultimate 3000 UHPLC+ Focused, Thermo Scientific), connected to a triple quadrupole spectrometer (TSQ Vantage, Thermo Scientific) equipped with a heated electrospray ionisation (H-ESI) source. Of each sample, 2 μL were injected into the analytical column (2.1 mm×150 mm, 5 μm pore size, 200 Å HILICON iHILIC®-Fusion(P)), guarded by a pre-column (2.1 mm×20 mm, 200 Å HILICON iHILIC®-Fusion(P) Guard Kit) operating at 35° C. The mobile phase (10 mM ammonium acetate at pH 9, A, and acetonitrile, B) was pumped at 0.25 mL/min flow rate over a linear gradient of decreasing organic solvent (0.5-16 min, 90-25% B), followed by re-equilibration for a total run time of 30 min. The MS operated in positive mode at 3500 V with multiple reaction monitoring (MRM). The software Xcalibur v4.1.31.9 (Thermo Scientific) was used for instrument control, data acquisition and processing. Retention time and mass detection was confirmed by authentic standards. […]

[2] = parameters: species or system mice; settings: mouse, in vivo, po
Source text: (§1) Levels of NRH and other NAD-related metabolites in biological samples were obtained by using a cold liquid-liquid extraction using a mixture of methanol:water:chloroform in 5:3:5 (v/v), from which the polar phase was recovered for hydrophilic interaction ultra-high performance liquid chromatography mass spectrometry (UHPLC-MS) analysis. The UHPLC consisted of a binary pump, a cooled autosampler, and a column oven (DIONEX Ultimate 3000 UHPLC+ Focused, Thermo Scientific), connected to a triple quadrupole spectrometer (TSQ Vantage, Thermo Scientific) equipped with a heated electrospray ionisation (H-ESI) source. Of each sample, 2 μL were injected into the analytical column (2.1 mm×150 mm, 5 μm pore size, 200 Å HILICON iHILIC®-Fusion(P)), guarded by a pre-column (2.1 mm×20 mm, 200 Å HILICON iHILIC®-Fusion(P) Guard Kit) operating at 35° C. The mobile phase (10 mM ammonium acetate at pH 9, A, and acetonitrile, B) was pumped at 0.25 mL/min flow rate over a linear gradient of decreasing organic solvent (0.5-16 min, 90-25% B), followed by re-equilibration for a total run time of 30 min. The MS operated in positive mode at 3500 V with multiple reaction monitoring (MRM). The software Xcalibur v4.1.31.9 (Thermo Scientific) was used for instrument control, data acquisition and processing. Retention time and mass detection was confirmed by authentic standards.
Oral administration of NRH led to very similar results to those observed after IP administration. […] In contrast, NR levels were undetectable at 1 h after NR administration. As expected, NR treatment led to large increases in circulating NAM, which where ˜4-fold higher than those observed after NRH treatment.

[3] = tested on: NAD+ levels in liver, muscle and kidney; experiment: Tissue NAD+ levels after intraperitoneal injection of NR or NRH; format: in vivo, mice; settings: IP 500 mg/kg, after 1 h
Method: (§2) The above results prompted us to test whether NRH could act as an effective NAD+ precursor in vivo. For this, we first intraperitoneally (IP) injected mice with either NR or NRH (500 mg/kg).

NMNAT = experiment: NRH-induced NAD+ synthesis under NMNAT inhibition with gallotannin; format: cell-based
Source text: As a follow-up step, NMNAT enzymes could catalyze the transition from NMNH to NADH.

INS1-cells = experiment: NAD+ levels in INS1-cells after NRH treatment; format: cell-based
Method: (§3) The ability of NRH to potently increase NAD+ was tested as well in other cell type models.

[4] = Circulating NAM, NRH and NR after intraperitoneal injection; format: in vivo, mice; settings: mouse, in vivo, ip
Source text: as §1, §2

NAMPT = NAMPT (Mus musculus, UniProt Q99KQ4); experiment: NRH action in presence of NAMPT inhibitor FK866; format: cell-based; settings: FK866, a NAMPT inhibitor
[5] = Stability of NRH or NR spiked in isolated mouse plasma; format: in vitro ADME
Source text: as §1
NR degradation to NAM has been proposed as a limitation for its pharmacological efficacy. To evaluate whether NRH was also susceptible to degradation to NAM, we spiked NRH or NR in isolated mouse plasma. […] We also tested the stability of NRH in other matrixes.

3T3 fibroblasts = experiment: NAD+ levels in 3T3 fibroblasts after NRH treatment; format: cell-based
Method: as §3

adenosine kinase (AK) = target: T1, adenosine kinase (AK) (Mus musculus, UniProt P55264); experiment: NRH-induced NAD+ synthesis under adenosine kinase inhibition (5-IT, ABT-702); format: cell-based
T1 construct: endogenous in cells; host or cells: AML12 cells
Method: AML12 cells were treated with an adenosine kinase inhibitor (5-IT; […]) for 1 hour prior to NRH treatment at the doses indicated. Then, 1 hour later, acidic extracts were obtained to measure NAD^+ levels. All values in the figure are expressed as mean +/−SEM of 3 independent experiments. * indicates statistical difference at p<0.05 vs. the respective vehicle treated group.
Considering the molecular structure of NRH, we reasoned that an alternative nucleoside kinase could be responsible for the phosphorylation of NRH. Confirming this expectation, the adenosine kinase (AK) inhibitor 5-iodotubercidin (5-IT) fully ablated the action of NRH. […] Metabolomic analyses further confirmed that upon inhibition of AK, the generation of NMNH, NADH and NAD+ was fully blunted, even if NRH was effectively entering the cell.

T1 sequence (P55264 whole entry): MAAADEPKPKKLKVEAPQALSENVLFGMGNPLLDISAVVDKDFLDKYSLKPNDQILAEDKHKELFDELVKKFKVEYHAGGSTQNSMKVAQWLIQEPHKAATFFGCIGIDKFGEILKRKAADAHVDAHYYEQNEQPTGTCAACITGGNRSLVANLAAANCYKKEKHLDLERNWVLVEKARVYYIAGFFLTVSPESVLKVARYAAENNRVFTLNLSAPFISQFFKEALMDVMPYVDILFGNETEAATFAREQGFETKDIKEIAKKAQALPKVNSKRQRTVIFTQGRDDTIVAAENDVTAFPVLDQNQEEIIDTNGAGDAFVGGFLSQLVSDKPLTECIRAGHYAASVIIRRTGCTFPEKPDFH
Chain of NAMPT (Q99KQ4 whole entry): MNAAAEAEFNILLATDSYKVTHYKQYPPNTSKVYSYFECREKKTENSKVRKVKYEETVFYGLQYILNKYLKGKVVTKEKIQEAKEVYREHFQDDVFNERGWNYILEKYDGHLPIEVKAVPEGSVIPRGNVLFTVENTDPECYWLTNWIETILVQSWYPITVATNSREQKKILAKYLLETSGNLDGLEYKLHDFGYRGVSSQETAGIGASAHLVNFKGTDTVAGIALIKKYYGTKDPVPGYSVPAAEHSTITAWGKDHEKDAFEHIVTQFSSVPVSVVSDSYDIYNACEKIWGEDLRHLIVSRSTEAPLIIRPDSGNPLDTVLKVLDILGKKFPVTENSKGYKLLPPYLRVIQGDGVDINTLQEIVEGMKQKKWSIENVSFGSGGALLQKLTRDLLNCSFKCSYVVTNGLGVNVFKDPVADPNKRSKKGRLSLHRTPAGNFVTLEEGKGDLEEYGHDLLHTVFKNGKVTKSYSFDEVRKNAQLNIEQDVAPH

NC(=O)C1=CN([C@@H]2O[C@H](CO)[C@@H](O)[C@H]2O)C=CC1 [NRH, dihydro-1-beta-D-ribofuranosyl-3-pyridinecarboxamide]
intracellular detection of NRH and NMNH ([1]; 5 minutes after treatment): could be detected intracellularly | intracellular NR and NMN ([1]; after treatment, compared with NR): increase in intracellular NR and NMN, greater than that triggered by NR itself | NRH concentration in plasma [2]: 11.16 ± 1.74 µM | administered compound in plasma [2]: detectable in plasma | NAD+ levels in kidney [3]: increased NAD+ levels | NAD+ levels in liver [3]: increased NAD+ levels | NAD+ levels in muscle [3]: increased NAD+ levels | NAD+ synthesis after NRH treatment in presence of gallotannin (NMNAT; NRH at maximal doses (0.5 mM)): largely compromised NAD+ synthesis; also recorded: part of the NRH action remained | NRH action in presence of gallotannin (NMNAT; NRH at submaximal doses): totally blocked by gallotannin | NAD+ levels (INS1-cells): highly elevated NAD+ levels | NR in circulation after NRH treatment [4]: detectable in circulation after NRH treatment at much higher levels than those detected after NR injection itself | NRH in circulation [4]: detectable in circulation | NAM levels in circulation ([4]; 500 mg/kg): only a very mild increase | dependence of NRH action on NAMPT (NAMPT): NAMPT-independent | NR production on incubation in isolated plasma [5]: did not lead to NR production | NAD+ levels (3T3 fibroblasts): highly elevated NAD+ levels | formation of NR and NMN after NRH treatment with 5-IT (adenosine kinase (AK); 5-IT treatment): prevented the formation of NR and NMN | action of NRH on NAD+ in presence of AK inhibitor 5-iodotubercidin (5-IT) (adenosine kinase (AK); AML12 cells, 5-IT 10 mM for 1 hour prior to NRH, NAD+ 1 hour later): fully ablated; also recorded: adenosine kinase dependent path | generation of NMNH, NADH and NAD+ upon inhibition of AK (adenosine kinase (AK); metabolomic analyses): fully blunted | NRH-mediated NAD+ synthesis in presence of AK inhibitor ABT-702 (adenosine kinase (AK); second, structurally different AK inhibitor): role of AK in NRH-mediated NAD+ synthesis was confirmed
